Measured values from patent US9018213B2, “Alicyclic[c] benzopyrone derivatives and uses thereof” (Huazhong University of Science & Technology, priority 2011, dated 2015).
Read-outs that look alike come from different tables or passages of the source.

Tests used:
D2 receptor = D2 receptor (Rattus norvegicus (Rat), UniProt P61169); assay: D2 receptor inhibition binding assay (3H-Spiperone); settings: read-out: D2 inhibition %
Method: Rats were sacrificed by cervical dislocation on ice. Cerebral cortex was rapidly taken, and 2 cerebral cortexes were combined into a centrifuge tube, to which 3 ml of buffer (0.05 M Tris-HCl buffer, containing NaCl 120 mM, KCl 5 mM, MgCl2 1 mM, CaCl2 1 mM) was added, homogenization was conducted for 3-4 s at level 4 for four times, and then 5 ml of buffer was then added. The weight of the homogenized tubes were adjusted using a balance, and centrifugation was conducted at 12000 r, 4° C. for 20 min. The supernatant was discarded, and 3 ml of B solution was added. Vortex mixer was used for blending, and then 5 ml of B solution was added. Centrifugation was conducted and repeated 3 times. After the centrifugations, the supernatant was discarded, and the pellets were stored at −80° C. for future use.
Beckman LS-6500 Multi-function Liquid Scintillation Counter was used.
(1) The prepared membrane was first applied with appropriate amount of homogenized liquid, and homogenizer was used for evenly dispersing. 15 tubes were mixed into a 100 ml container, and appropriate amount of homogenized liquid was added to give 50 ml of membrane suspension, which was reserved for future use.
(2) 100 μL of membrane preparation and 100 μL of buffer were added into each reaction tube.
(3) 100 μL of homogenized liquid was added into the total binding tube (TB), 100 μL of Butaclamol (final concentration 10^−5 M) was added into the non-specific binding tube (NB), and 100 μL of the test compound (final concentration 10^−5 M) was added into the specific binding tube (SB) for each compound.
(5) Each of the reaction tubes was incubated at 37° C. for 20 min. After the reaction was completed, the bound ligands were rapidly filtered under reduced pressure, and the ice-chilled assay buffer was used for adequate washing. The filter was taken out and put into a 3 ml scintillation vial, and 2 ml of toluene scintillation solution was added and blended.
(6) The scintillation vials were put into Liquid Scintillation Counter for counting. Inhibitory rate (I %)=(Total binding tube cpm−compound cpm)/(Total binding tube cpm−non-specific binding tube cpm)×100%
Each assay for the compounds was conducted in duplicate.

5HT1A receptor = 5HT1A receptor (Rattus norvegicus (Rat), UniProt P19327); assay: 5HT1A receptor binding assay (3H-8-OH-DPAT); settings: test compound final concentration 10^-5 M
Sequence of 5HT1A receptor (P19327 whole entry): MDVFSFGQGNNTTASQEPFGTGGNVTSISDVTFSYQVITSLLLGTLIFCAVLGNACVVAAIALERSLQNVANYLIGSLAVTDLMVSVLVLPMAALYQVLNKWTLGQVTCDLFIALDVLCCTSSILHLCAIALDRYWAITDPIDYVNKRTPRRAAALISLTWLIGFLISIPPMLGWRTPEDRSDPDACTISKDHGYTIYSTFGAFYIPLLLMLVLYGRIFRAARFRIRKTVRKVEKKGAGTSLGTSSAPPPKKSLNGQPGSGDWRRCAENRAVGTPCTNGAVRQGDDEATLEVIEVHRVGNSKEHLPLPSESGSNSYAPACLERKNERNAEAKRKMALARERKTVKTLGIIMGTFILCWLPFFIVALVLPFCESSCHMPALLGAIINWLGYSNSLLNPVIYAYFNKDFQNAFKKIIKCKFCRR
Method: Preparation of 5HT1A Membrane
Incubation at 37° C. was conducted for 10 min, the weight of the tubes were adjusted using a balance after incubation. […] Centrifugation was conducted and repeated 3 times.
Materials for the Receptor Binding Assay

5HT2A receptor = 5HT2A receptor (Rattus norvegicus (Rat), UniProt P14842); assay: 5HT2A receptor binding assay ([3H]-Ketanserin); settings: read-out: 5HT2A inhibition %
Sequence of 5HT2A receptor (P14842 whole entry): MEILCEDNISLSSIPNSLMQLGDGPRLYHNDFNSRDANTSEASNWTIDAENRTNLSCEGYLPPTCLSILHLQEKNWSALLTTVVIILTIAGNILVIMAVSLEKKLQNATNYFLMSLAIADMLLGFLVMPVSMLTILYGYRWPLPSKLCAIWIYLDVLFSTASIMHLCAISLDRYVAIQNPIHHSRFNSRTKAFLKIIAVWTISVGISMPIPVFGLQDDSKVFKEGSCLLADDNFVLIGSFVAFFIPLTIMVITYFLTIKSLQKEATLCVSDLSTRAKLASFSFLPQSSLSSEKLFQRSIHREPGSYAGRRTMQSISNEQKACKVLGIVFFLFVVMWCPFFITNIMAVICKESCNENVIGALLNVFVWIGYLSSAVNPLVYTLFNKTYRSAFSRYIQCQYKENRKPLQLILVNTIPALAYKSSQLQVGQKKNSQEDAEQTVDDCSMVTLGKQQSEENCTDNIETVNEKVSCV

KM mice = assay: Apomorphine induced clambering assay of mice; format: in vivo; settings: for ED50: Mus musculus, read-out: apomorphine induced clambering ED50; for Scoring (value), apomorphine induced clambering: x ± s, n = 10
Method: Apomorphine Induced Clambering Assay of Mice
Healthy KM mice (male, with body weight of 18-22 g) were provided by Qinglongshan Animal Cultivation Center, Nanjing.
Apomorphine provided by Sigma Company was dissolved in 0.9% NaCl (containing 0.1% vitamin C) before use, and was freshly formulated before use.
Vitamin C, F20061113, was provided by Sinopharm Chemical Reagent Co. Ltd.
Sodium chloride injection, H32026305, was provided by Xuzhou No. 5 Pharmaceutical Factory Co. Ltd.
Instruments: self-made clambering cage, chronograph.
Procedures: apomorphine induced clambering assay of mice
After 5 min of adaptation, the behaviors of the mice at 10-11, 20-21, and 30-31 min after the injection of apomorphine were observed and scored. Scoring criteria: 4 paws on the floor was scored as 0; 2 forepaws on the cage was scored as 1; and 4 paws on the cage was scored as 2.

mice of Kunming breed = assay: MK-801 induced high activity; format: in vivo; settings: po, mice; for ED50: Mus musculus
Method: Healthy mice of Kunming breed (with half male and half female, (20±2) g) were provided by Qinglongshan Animal Cultivation Center, Nanjing.
Ascorbic acid was provided by Sinopharm Chemical Reagent Co. Ltd.
Tween 80, with the concentration of 10%.
Subsequently, the spontaneous activities of the mice of each group in 90 min were measured.

in vivo [1] = settings: both, Kunming (KM), mouse, po
Method: Healthy mice of Kunming breed (with half male and half female, (22±2) g) were provided by Qinglongshan Animal Cultivation Center, Nanjing.
The durations for the mice to maintain the posture with the two forepaws on the bars were recorded, and 30 s of spasticity without moving was considered as the positive response. In the case the forepaws of the mice were not put down persistently, the observation was terminated at 60 s. The numbers of animals with positive response in each of the compound dosage groups were counted.

in vivo [2] = settings: both sexes, mouse, in vivo, po
Method: Limit Test of Sequential Assay
KM mice (half male and half female) were randomly divided into several groups (with 2-5 mice in each group), which were respectively the 2000 mg/kg groups for each compound, and the solvent group. 0.2 ml/10 g were administered intragastrically. The death of the animals in 3 days were observed. (In the case 3 or more animals survived in 3 days without notable abnormity in their life states, the observation was continued until the assay was completed in 7 days. In the case 3 or more animals died in 3 days, the median lethal dose method was used to determine the LD50).
Pre-Assay for the Median Lethal Dose Method
0.2 ml/10 g were administered intragastrically, and the death of the animals in 1-3 days were observed.

Sequence of D2 receptor (P61169 whole entry): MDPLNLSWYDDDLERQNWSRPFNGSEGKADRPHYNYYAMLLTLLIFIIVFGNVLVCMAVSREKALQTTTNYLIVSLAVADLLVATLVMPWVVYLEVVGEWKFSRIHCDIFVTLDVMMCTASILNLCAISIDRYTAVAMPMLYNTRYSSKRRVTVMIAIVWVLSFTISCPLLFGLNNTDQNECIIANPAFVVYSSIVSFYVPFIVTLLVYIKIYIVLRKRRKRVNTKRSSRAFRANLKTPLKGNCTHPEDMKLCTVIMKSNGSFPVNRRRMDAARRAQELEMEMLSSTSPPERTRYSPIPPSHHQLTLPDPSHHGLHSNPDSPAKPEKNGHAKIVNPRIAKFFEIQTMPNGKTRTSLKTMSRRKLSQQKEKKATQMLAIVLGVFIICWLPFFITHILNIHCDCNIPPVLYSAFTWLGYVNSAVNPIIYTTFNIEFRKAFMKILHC

| Structure (SMILES) | inhibition at 10 µM (D2 receptor) | inhibition at 10 µM (5HT1A receptor) | inhibition at 10 µM (5HT2A receptor) | also measured |
| --- | --- | --- | --- | --- |
| O=c1oc2cc(OCCCCN3CCC(c4noc5cc(F)ccc45)CC3)ccc2c2c1CCCC2 [Compound 18, 3-{4-[4-(3-(6-fluoro-benzisoxazole)-1-piperidyl)-butoxy]}-7,8,9,10-tetrahydrobenzo[c]benzopyran-6-one] | 80.6% | 46.6% | 114% |  |
| O=c1oc2cc(OCCCCN3CCN(c4ccc(F)cc4)CC3)ccc2c2c1CCC2 [Compound 9, 7-{4-[4-(4-fluorophenyl)piperazin-1-yl]-butoxy}-2,3-dihydro-1H-cyclopenteno[c]benzopyran-4-one] | 15.2% | 104% | 119% |  |
| COc1ccccc1N1CCN(CCCCOc2ccc3c4c(c(=O)oc3c2Cl)CCC4)CC1 [Compound 13, 7-{4-[4-(2-methoxyphenyl)piperazin-1-yl]-butoxy}-6-chloro-2,3-dihydro-1H-cyclopenteno[c]benzopyran-4-one] | 59.2% | 106% | 105% |  |
| COc1ccccc1N1CCN(CCCOc2ccc3c4c(c(=O)oc3c2)CCC4)CC1 [Compound 4, 7-{3-[4-(2-methoxyphenyl)piperazin-1-yl]-propoxy}-2,3-dihydro-1H-cyclopenteno[c]benzopyran-4-one] | 50.2% | 116% | 112% |  |
| O=C1CCc2ccc(OCCCCN3CCN(c4cccc(Cl)c4Cl)CC3)cc2N1 [aripiprazole] |  |  |  | ED50 (KM mice; po, mice): 0.66 mg/kg; Scoring (value), apomorphine induced clambering (KM mice; dosage 0.3 mg/kg): 4.50 ± 1.51; Scoring (value), apomorphine induced clambering (KM mice; dosage 1 mg/kg): 1.5 ± 1.08; Scoring (value), apomorphine induced clambering (KM mice; dosage 3 mg/kg): 2.30 ± 1.57; Scoring (value), apomorphine induced clambering (KM mice; dosage 10 mg/kg): 0.20 ± 0.42; ED50 (mice of Kunming breed): 0.12 mg/kg; ED50 (in vivo [1]): 2.4 mg/kg; LD50 (in vivo [2]; KM): 93 mg/kg |
| O=c1oc2cc(OCCCN3CCN(c4cccc(C(F)(F)F)c4)CC3)ccc2c2c1CCC2 [Compound 3, 7-{3-[4-(3-trifluoromethylphenyl)piperazin-1-yl]-propoxy}-2,3-dihydro-1H-cyclopenteno[c]benzopyran-4-one] | 17.2% | 104% | 62.2% |  |
| O=C1Cc2cc(CCN3CCN(c4nsc5ccccc45)CC3)c(Cl)cc2N1 [ziprasidone] |  |  |  | ED50 (KM mice; po, mice): 0.37 mg/kg; Scoring (value), apomorphine induced clambering (KM mice; dosage 0.3 mg/kg): 4.40 ± 2.01; Scoring (value), apomorphine induced clambering (KM mice; dosage 1 mg/kg): 3.80 ± 1.40; Scoring (value), apomorphine induced clambering (KM mice; dosage 3 mg/kg): 0.70 ± 1.16; Scoring (value), apomorphine induced clambering (KM mice; dosage 10 mg/kg): 0.40 ± 0.84; ED50 (mice of Kunming breed): 0.56 mg/kg; ED50 (in vivo [1]): 30.4 mg/kg; LD50 (in vivo [2]; mice, single intragastric administration, read-out: LD50): > 2000 mg/kg |
| Cc1cc2c(s1)Nc1ccccc1N=C2N1CCN(C)CC1 [olanzapine] |  |  |  | ED50 (KM mice; po): 0.11 mg/kg; Scoring (value), apomorphine induced clambering (KM mice; dosage 0.1 mg/kg): 5.00 ± 1.25; Scoring (value), apomorphine induced clambering (KM mice; dosage 0.3 mg/kg): 2.10 ± 1.10; Scoring (value), apomorphine induced clambering (KM mice; dosage 1 mg/kg): 1.30 ± 1.25; Scoring (value), apomorphine induced clambering (KM mice; dosage 3 mg/kg): 0.30 ± 0.48 |
| Cc1c(OCCCCN2CCN(c3nsc4ccccc34)CC2)ccc2c3c(c(=O)oc12)CCC3 [Compound 12, 7-{4-[4-(3-(1,2-benzisothiazole)-1-piperazinyl)-butoxy]}-6-methyl-2,3-dihydro-1H-cyclopenteno[c]benzopyran-4-one] | 61.2% | 104% | 107% |  |
| COc1ccc(N2CCN(CCCCOc3ccc4c5c(c(=O)oc4c3)CCC5)CC2)cc1 [Compound 8, 7-{4-[4-(4-methoxyphenyl)piperazin-1-yl]-butoxy}-2,3-dihydro-1H-cyclopenteno[c]benzopyran-4-one] | 26.4% | 62.8% | 23.4% |  |
| OCCOCCN1CCN(C2=Nc3ccccc3Sc3ccccc32)CC1 [quetiapine] |  |  |  | Scoring (value), apomorphine induced clambering (KM mice; dosage 3 mg/kg): 4.00 ± 2.05; Scoring (value), apomorphine induced clambering (KM mice; dosage 10 mg/kg): 3.00 ± 1.63; Scoring (value), apomorphine induced clambering (KM mice; dosage 30 mg/kg): 4.00 ± 2.31; Scoring (value), apomorphine induced clambering (KM mice; dosage 100 mg/kg): 2.60 ± 2.55; Scoring (value), apomorphine induced clambering (KM mice; dosage 300 mg/kg): 0.50 ± 1.07; apomorphine induced clambering ED50 (KM mice; po, mice): 2.02 mg/kg; MK-801 induced high activity ED50 (mice of Kunming breed): 10.1 mg/kg; ED50 (in vivo [1]): 800 mg/kg; LD50 (in vivo [2]; KM): 800 mg/kg |
| COc1ccccc1N1CCN(CCCCOc2ccc3c4c(c(=O)oc3c2C)CCC4)CC1 [Compound 11, 7-{4-[4-(2-methoxyphenyl)piperazin-1-yl]-butoxy}-6-methyl-2,3-dihydro-1H-cyclopenteno[c]benzopyran-4-one] | 59.2% | 106% | 105% |  |
| COc1ccccc1N1CCN(CCCCOc2cc3oc(=O)c4c(c3cc2Cl)CCC4)CC1 [Compound 17, 7-{4-[4-(2-methoxyphenyl)piperazin-1-yl-butoxy]}-8-chloro-2,3-dihydro-1H-cyclopenteno[c]benzopyran-4-one] | 15.4% | 115% | 104% |  |
| Cc1cccc(N2CCN(CCCOc3ccc4c5c(c(=O)oc4c3)CCC5)CC2)c1C [Compound 1, 7-{3-[4-(2,3-dimethylphenyl)piperazin-1-yl]-propoxy}-2,3-dihydro-1H-cyclopenteno[c]benzopyran-4-one] | 3.3% | 103% | 82.9% |  |
| O=c1oc2cc(OCCCCN3CCC(c4noc5cc(F)ccc45)CC3)ccc2c2c1CCC2 [Compound 10, 7-{4-[4-(3-(6-fluoro-benzisoxazole)-1-piperidyl)-butoxy]}-2,3-dihydro-1H-cyclopenteno[c]benzopyran-4-one] | 5.7% | 42.5% | 68.4% |  |
| O=c1oc2cc(OCCCN3CCN(c4cccc(Cl)c4Cl)CC3)ccc2c2c1CCC2 [Compound 2, 7-{3-[4-(2,3-dichlorophenyl)piperazin-1-yl]-propoxy}-2,3-dihydro-1H-cyclopenteno[c]benzopyran-4-one] | 11.5% | 65.8% | 14.3% |  |
| COc1ccccc1N1CCN(CCCOc2ccc3c4c(c(=O)oc3c2C)CCC4)CC1 [Compound 6, 7-{3-[4-(2-methoxyphenyl)piperazin-1-yl]-propoxy}-6-methyl-2,3-dihydro-1H-cyclopenteno[c]benzopyran-4-one] | 4.7% | 95.5% | 75.4% |  |
| Cc1nc2n(c(=O)c1CCN1CCC(c3noc4cc(F)ccc34)CC1)CCCC2 [risperidone] |  |  |  | ED50 (KM mice; po): 0.015 mg/kg; effect on apomorphine induced clambering symptoms (in words) (KM mice; compared to the model group): effectively improve; Scoring (value), apomorphine induced clambering (KM mice; dosage 0.01 mg/kg): 5.20 ± 1.87; Scoring (value), apomorphine induced clambering (KM mice; dosage 0.03 mg/kg): 2.70 ± 1.77; Scoring (value), apomorphine induced clambering (KM mice; dosage 0.1 mg/kg): 1.80 ± 1.32; Scoring (value), apomorphine induced clambering (KM mice; dosage 0.3 mg/kg): 0.20 ± 0.63 |
| O=c1oc2cc(OCCCCN3CCC(c4noc5cc(F)ccc45)CC3)c(Cl)cc2c2c1CCC2 [Compound 16, 7-{4-[4-(3-(6-fluoro-benzisoxazole)-1-piperidyl)-butoxy]}-8-chloro-2,3-dihydro-1H-cyclopenteno[c]benzopyran-4-one] | 51.5% | 55.3% | 88.4% |  |
| COc1ccccc1N1CCN(CCCCOc2ccc3c4c(c(=O)oc3c2C)CCCC4)CC1 [Compound 20, 3-{4-[4-(2-methoxyphenyl)piperazin-1-yl]-butoxy}-4-methyl-7,8,9,10-tetrahydrobenzo[c]benzopyran-6-one] | 66.4% | 100% | 90.7% |  |
